# Experimental data: ChEMBL document CHEMBL1201862, “PubChem BioAssay data set” (2004)
# Calls of active or inactive are those of the source.
# Columns and labels:
# [1] = target: T1, Streptokinase A (Streptococcus pyogenes serotype M1, UniProt P10520); experiment: S. pyogenes streptokinase expression inhibitors, potency, dose response, plasminogen activation absorbance, OD405 (AID 1914); assay type: functional, Streptococcus pyogenes M1 GAS;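 further: secreted streptokinase activity via plasminogen activation per viability signal from cell pellet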
# T1 sequence (P10520 whole entry): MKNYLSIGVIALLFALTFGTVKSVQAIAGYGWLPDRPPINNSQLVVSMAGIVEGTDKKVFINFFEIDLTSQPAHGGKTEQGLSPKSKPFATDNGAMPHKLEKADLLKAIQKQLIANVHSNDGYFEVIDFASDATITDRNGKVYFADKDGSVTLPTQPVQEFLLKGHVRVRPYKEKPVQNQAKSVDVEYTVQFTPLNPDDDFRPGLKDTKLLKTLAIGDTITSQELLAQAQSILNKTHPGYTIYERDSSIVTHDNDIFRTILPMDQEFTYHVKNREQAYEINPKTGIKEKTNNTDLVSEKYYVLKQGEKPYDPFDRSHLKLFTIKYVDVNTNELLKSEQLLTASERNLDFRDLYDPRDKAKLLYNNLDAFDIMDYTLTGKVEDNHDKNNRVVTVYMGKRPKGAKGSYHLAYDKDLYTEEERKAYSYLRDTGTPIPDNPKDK
# [2] = target: T2, Protein RecA (Mycobacterium tuberculosis, UniProt P9WHJ3); experiment: Fluorescence Cell-Free Homogeneous Dose Retest to Identify Inhibitors of RecA-Intein Splicing Activity. [Related pubchem assays (depositor defined):AID2097, AID2223, AID489010, AID492950]; assay type: functional
# T2 sequence (P9WHJ3 whole entry): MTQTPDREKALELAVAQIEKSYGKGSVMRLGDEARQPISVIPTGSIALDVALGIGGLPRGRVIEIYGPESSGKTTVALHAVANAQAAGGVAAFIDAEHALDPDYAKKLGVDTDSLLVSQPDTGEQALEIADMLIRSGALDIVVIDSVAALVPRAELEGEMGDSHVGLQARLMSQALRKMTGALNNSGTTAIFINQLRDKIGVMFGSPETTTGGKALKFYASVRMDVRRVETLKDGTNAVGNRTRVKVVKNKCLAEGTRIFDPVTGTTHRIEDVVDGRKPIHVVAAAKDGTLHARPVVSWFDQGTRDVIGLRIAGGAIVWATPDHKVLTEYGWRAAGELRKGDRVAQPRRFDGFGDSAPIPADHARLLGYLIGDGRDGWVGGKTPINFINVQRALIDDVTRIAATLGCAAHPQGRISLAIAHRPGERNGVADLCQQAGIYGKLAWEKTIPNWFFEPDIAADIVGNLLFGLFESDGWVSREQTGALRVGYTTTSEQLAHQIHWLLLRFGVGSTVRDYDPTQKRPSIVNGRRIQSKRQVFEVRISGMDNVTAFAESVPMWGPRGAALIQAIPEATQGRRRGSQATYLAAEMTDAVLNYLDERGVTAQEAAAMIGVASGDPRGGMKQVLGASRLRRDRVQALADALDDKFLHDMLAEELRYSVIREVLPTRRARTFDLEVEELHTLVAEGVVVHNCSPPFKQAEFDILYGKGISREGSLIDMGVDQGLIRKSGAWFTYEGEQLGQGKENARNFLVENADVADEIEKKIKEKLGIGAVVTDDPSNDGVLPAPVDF
# [3] = target: T3, Neuropeptide Y receptor type 1 (Homo sapiens, UniProt P25929); experiment: Fluorescence-based counterscreen for potentiators or agonists of NPY-Y2: cell-based high-throughput dose response assay for potentiators or agonists of NPY-Y1.; assay type: functional
# T3 sequence (P25929 whole entry): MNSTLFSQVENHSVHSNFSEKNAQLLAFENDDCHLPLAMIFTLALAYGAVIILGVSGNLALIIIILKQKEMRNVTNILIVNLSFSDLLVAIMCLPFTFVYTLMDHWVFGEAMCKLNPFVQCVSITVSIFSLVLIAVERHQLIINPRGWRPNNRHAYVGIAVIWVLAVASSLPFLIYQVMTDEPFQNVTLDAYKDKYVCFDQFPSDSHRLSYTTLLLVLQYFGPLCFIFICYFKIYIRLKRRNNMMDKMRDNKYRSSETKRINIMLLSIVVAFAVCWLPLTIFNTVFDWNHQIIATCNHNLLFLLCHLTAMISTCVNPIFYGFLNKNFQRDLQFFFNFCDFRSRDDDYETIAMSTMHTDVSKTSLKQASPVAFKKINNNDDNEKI
# [4] = target: T4, Replicative DNA helicase DnaB (Mycobacterium tuberculosis, UniProt P9WMR3); experiment: DnaB intein splicing inhibitors, dose response, biochemical, cell-free fluorescence (AID 449749); assay type: functional
# T4 sequence (P9WMR3 whole entry): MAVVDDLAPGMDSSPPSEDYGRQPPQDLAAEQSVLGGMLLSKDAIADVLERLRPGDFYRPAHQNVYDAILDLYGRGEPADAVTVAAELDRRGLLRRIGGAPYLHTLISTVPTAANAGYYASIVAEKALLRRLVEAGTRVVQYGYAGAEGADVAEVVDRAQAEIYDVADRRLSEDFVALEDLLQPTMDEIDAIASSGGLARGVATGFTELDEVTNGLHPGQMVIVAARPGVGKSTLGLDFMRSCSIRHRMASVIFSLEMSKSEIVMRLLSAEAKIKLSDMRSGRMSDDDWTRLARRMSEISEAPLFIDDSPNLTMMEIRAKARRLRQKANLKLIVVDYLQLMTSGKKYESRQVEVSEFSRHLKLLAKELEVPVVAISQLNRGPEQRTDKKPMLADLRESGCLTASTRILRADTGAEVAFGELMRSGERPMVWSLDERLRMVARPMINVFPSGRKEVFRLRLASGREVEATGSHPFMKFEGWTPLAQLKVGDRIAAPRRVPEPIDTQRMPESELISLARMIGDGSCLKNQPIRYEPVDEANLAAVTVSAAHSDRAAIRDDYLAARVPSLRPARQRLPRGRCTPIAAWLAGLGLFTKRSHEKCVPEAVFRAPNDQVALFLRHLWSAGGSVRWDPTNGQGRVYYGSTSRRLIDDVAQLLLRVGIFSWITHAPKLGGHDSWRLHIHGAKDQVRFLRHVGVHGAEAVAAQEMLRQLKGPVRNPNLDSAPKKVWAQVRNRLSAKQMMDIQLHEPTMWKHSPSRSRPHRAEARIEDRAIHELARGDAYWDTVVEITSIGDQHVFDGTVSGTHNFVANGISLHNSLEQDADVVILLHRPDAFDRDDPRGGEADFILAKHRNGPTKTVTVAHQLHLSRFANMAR
# [5] = target: T5, Neuropeptide Y receptor type 2 (Homo sapiens, UniProt P49146); experiment: Fluorescence-based cell-based high-throughput dose response assay for agonists of NPY-Y2. [Related pubchem assays: 1703 (Screening assay (CNGC inhibitors).), 1359 (Screening assay (NPY-Y2 potentiators or agonists).), 1304 (Screening assay (NPY-Y1 potentiators or agonists).), 1710 (Screening assay (NPY-Y2 agonists).), 1791 (Summary AID.)]; assay type: functional
# T5 sequence (P49146 whole entry): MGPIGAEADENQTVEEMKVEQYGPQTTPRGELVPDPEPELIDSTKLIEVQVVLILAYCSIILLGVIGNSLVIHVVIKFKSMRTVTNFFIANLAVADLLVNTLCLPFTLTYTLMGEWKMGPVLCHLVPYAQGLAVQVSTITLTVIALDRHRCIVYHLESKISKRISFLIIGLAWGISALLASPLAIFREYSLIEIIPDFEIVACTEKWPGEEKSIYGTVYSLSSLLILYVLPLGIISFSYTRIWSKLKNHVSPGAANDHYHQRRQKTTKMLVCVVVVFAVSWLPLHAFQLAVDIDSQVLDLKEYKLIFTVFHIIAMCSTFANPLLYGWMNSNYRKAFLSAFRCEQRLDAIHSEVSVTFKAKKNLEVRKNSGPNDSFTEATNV
# [6] = target: T3, Neuropeptide Y receptor type 1; experiment: Fluorescence-based counterscreen for agonists of NPY-Y2: cell-based high-throughput dose response assay for agonists of NPY-Y1.; assay type: functional
# [7] = target: Photoreceptor-specific nuclear receptor (Homo sapiens, UniProt Q9Y5X4); assay type: functional, cell-based;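 further: CHO-S cells with Gal4-NCOR and VP16-NR2E3 two-hybrid luciferase reporter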
# Photoreceptor-specific nuclear receptor, sequence (Q9Y5X4 whole entry, the tested form may be a part): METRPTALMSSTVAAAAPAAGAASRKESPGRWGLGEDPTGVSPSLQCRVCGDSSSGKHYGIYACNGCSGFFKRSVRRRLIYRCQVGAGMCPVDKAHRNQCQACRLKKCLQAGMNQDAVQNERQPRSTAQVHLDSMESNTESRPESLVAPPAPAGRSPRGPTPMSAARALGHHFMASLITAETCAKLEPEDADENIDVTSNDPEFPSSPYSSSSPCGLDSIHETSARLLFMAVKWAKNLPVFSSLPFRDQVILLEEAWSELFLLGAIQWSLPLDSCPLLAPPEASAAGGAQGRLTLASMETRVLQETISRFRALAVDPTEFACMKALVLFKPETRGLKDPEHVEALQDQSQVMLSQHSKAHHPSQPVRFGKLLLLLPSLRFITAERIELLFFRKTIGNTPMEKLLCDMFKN
# [8] = target: T5, Neuropeptide Y receptor type 2; experiment: Fluorescence-based cell-based high-throughput dose response assay for potentiators or agonists of NPY-Y2. [Related pubchem assays: 1539 (Screening assay (NPY-Y2 potentiators or agonists).), 1703 (Screening assay (CNGC inhibitors).), 1359 (Screening assay (NPY-Y2 potentiators or agonists).), 1304 (Screening assay (NPY-Y1 potentiators or agonists).) …; assay type: functional
# [9] = target: Potassium voltage-gated channel subfamily KQT member 2 (Rattus norvegicus, UniProt O88943, W236L); experiment: KCNQ2 channel potentiators, dose response, mechanism study for KCNQ2 potentiator project, cell-based, automated electrophysiology (AID 2603); assay type: functional
# [10] = target: Estrogen receptor beta (Homo sapiens, UniProt Q92731); experiment: ERβ–SRC-3 coactivator interaction inhibitors, confirmation, orthogonal assay, biochemical, ELISA, streptavidin-HRP readout (AID 1060)
# Estrogen receptor beta, sequence (Q92731 whole entry): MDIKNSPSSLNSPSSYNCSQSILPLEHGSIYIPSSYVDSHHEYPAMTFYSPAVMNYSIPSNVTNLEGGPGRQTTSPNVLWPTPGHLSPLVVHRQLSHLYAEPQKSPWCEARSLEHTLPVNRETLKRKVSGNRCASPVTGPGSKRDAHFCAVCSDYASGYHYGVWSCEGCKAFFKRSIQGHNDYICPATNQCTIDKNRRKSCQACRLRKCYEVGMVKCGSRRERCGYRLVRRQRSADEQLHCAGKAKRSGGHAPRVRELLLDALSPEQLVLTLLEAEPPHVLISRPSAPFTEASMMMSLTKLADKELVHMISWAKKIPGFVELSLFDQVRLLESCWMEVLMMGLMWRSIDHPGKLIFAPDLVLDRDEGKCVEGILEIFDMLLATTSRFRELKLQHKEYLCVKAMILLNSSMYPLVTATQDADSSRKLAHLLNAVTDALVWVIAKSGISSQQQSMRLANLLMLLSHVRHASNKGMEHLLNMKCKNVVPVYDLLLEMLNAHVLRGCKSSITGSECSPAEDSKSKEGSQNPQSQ
# [11] = target: Bcl-2-like protein 10 (Homo sapiens, UniProt Q9HD36); experiment: displacers of TR3 peptide from Bcl-B, primary screen, selectivity assay for Bfl-1 inhibitor project, biochemical, fluorescence polarization, FITC-TR3 peptide (AID 748);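 further: fluorescence polarization from a fluorescein-labelled TR3 peptide binding purified Bcl-B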
# Bcl-2-like protein 10, sequence (Q9HD36 whole entry): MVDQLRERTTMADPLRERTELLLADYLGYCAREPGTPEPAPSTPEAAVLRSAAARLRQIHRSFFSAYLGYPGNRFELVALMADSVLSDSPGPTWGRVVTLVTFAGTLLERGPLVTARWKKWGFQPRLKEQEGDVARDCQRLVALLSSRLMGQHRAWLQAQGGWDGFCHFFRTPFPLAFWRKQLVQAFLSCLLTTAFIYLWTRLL
# [12] = cytotoxicity toward NIH3T3 fibroblasts, dose response, counter-screen, cell-based, ATP luminescence, mouse fibroblasts (AID 2010); assay type: functional;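 further: cells exposed to compound for about 90 hours before reading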
# [13] = target: 5-hydroxytryptamine receptor 1E (Homo sapiens, UniProt P28566); experiment: Counterscreen assay for S1P3 antagonists: Dose response cell-based high throughput screening assay to identify antagonists of the 5-Hydroxytryptamine Receptor Subtype 1E (5HT1E). [Related pubchem assays: 1429, 485 ]; assay type: functional
# 5-hydroxytryptamine receptor 1E, sequence (P28566 whole entry): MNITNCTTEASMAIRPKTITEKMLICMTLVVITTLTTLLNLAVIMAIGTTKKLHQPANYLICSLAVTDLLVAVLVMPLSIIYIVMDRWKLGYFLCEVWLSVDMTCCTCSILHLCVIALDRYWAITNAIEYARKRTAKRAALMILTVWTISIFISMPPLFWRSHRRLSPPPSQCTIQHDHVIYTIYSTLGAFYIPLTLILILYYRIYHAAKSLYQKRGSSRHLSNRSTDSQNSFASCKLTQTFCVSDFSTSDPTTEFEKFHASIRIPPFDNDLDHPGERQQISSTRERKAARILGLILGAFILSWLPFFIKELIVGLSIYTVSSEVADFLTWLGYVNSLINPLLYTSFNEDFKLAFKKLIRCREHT
# [14] = target: Sphingosine 1-phosphate receptor 3 (Homo sapiens, UniProt Q99500); experiment: Dose response cell-based high throughput screening assay for antagonists of the Sphingosine 1-Phosphate Receptor 3 (S1P3). [Related pubchem assays: 1429, 485 ]; assay type: functional
# Sphingosine 1-phosphate receptor 3, sequence (Q99500 whole entry): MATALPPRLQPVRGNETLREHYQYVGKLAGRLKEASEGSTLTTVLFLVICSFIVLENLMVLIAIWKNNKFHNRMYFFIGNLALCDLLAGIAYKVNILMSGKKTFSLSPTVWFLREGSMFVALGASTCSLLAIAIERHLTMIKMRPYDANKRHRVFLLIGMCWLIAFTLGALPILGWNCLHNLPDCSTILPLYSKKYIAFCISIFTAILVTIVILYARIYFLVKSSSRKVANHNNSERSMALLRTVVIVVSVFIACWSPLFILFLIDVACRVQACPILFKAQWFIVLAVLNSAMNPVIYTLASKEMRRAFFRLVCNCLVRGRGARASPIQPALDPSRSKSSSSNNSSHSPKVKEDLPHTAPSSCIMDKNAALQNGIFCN
# [15] = inhibitors of intracellular T. cruzi replication, confirmation, NIH3T3 host cells, beta-gal luminescence (AID 2044); assay type: functional, cell-based;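 further: intracellular parasites grown in NIH/3T3 mouse fibroblasts as host cells; luminescent beta-galactosidase reporter signal from transgenic T. cruzi replicating inside host cells; inhibitors lower the luminescence signal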
# [16] = target: Mucolipin-3 (Homo sapiens, UniProt Q8TDD5); experiment: Dose response cell-based high-throughput screening assay for agonists of the transient receptor potential channel ML3 (TRPML3). [Related pubchem assays: 1526, 1424, 1448 ]; assay type: functional
# Mucolipin-3, sequence (Q8TDD5 whole entry): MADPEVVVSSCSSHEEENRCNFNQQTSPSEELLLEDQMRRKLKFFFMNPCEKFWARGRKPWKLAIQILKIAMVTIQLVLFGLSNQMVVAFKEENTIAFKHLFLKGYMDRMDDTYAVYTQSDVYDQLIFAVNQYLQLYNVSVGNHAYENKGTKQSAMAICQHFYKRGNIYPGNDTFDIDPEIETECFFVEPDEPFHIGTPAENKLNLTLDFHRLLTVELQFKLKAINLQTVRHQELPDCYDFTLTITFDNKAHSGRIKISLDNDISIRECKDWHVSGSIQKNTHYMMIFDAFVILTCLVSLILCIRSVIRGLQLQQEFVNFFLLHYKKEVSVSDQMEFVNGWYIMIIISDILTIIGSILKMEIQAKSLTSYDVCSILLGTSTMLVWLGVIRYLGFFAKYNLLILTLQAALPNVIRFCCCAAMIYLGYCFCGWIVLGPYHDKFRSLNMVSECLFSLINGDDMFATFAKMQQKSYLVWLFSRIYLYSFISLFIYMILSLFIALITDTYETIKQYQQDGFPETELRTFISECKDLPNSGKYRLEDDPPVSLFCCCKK
# [17] = target: Ion channel NompC (Danio rerio, UniProt Q7T1G6); experiment: Fluorescence counterscreen assay for TRPML3 agonists: dose response cell-based high-throughput screening assay to identify agonists of the transient receptor potential channel N1 (TRPN1). [Related pubchem assays: 1526, 1424, 1448 ]; assay type: functional
# Ion channel NompC, sequence (Q7T1G6 whole entry): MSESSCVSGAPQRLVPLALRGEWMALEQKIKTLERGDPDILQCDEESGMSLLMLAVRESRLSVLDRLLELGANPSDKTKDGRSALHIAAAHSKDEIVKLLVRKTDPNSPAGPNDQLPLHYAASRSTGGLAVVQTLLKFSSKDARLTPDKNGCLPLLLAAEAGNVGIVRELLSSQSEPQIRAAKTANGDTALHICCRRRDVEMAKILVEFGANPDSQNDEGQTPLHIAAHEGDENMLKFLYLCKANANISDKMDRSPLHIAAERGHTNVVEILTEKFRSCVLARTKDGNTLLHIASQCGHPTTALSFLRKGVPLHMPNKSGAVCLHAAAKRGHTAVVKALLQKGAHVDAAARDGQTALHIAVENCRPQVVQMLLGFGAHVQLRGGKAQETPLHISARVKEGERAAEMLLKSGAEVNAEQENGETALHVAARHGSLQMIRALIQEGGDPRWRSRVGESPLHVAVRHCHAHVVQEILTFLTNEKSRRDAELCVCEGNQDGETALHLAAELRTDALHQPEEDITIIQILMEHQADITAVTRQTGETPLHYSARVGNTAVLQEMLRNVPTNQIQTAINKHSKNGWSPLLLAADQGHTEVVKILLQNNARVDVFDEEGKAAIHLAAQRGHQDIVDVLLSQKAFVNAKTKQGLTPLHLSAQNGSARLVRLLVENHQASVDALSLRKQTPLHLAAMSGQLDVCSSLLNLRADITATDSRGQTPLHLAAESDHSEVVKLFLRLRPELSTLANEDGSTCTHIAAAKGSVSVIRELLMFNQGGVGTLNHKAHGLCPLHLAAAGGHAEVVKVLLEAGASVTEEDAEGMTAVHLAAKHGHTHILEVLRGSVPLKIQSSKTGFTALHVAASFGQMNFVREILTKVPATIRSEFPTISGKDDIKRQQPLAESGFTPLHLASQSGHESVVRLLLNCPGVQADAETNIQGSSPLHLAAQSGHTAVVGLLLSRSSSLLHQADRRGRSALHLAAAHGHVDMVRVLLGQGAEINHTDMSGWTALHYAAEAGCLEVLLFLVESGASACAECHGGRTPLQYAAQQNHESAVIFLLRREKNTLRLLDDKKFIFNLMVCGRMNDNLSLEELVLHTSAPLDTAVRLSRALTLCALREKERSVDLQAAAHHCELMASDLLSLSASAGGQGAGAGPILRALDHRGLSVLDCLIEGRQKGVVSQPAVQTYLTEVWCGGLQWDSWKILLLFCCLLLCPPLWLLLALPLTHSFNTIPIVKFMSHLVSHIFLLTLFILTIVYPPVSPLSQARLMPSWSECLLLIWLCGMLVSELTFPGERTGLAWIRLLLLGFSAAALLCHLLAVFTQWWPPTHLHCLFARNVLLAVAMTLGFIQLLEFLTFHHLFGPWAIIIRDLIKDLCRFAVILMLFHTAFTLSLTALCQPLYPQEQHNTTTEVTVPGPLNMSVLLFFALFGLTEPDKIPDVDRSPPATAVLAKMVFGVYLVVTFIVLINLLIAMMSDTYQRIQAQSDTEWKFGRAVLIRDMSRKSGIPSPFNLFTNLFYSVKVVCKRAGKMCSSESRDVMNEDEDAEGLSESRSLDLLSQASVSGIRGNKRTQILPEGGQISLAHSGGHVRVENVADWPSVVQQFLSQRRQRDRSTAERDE
# [18] = NIH-3T3 fibroblast cytotoxicity, dose response, cytotoxicity control, cell-based, fluorescence, Alamar Blue, secondary assay (AID 2327); assay type: functional;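 further: NIH-3T3 mouse fibroblasts cultured with fluconazole at 8 µg/mL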
# [19] = target: T6, Carboxy-terminal domain RNA polymerase II polypeptide A small phosphatase 1 (Homo sapiens, UniProt Q9GZU7); experiment: inhibitors of CTDSP1, concentration-response testing, biochemical assay, absorbance-based, actives from ultra-high-throughput screening (AID 540297); assay type: functional
# T6 sequence (Q9GZU7 whole entry): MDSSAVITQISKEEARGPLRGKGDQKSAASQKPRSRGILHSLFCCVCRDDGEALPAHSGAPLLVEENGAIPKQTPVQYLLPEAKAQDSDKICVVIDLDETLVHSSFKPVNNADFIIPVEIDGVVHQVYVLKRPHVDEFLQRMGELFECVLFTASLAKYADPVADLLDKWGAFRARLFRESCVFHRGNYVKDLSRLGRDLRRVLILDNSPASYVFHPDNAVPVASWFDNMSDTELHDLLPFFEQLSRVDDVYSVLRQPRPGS
# [20] = target: Induced myeloid leukemia cell differentiation protein Mcl-1 (Homo sapiens, UniProt Q07820); experiment: MCL1-BIM BH3 interaction inhibitors, dose response, biochemical, fluorescence polarization, BIM-BH3 peptide, 1536-well (AID 2217)
# Induced myeloid leukemia cell differentiation protein Mcl-1, sequence (Q07820 whole entry): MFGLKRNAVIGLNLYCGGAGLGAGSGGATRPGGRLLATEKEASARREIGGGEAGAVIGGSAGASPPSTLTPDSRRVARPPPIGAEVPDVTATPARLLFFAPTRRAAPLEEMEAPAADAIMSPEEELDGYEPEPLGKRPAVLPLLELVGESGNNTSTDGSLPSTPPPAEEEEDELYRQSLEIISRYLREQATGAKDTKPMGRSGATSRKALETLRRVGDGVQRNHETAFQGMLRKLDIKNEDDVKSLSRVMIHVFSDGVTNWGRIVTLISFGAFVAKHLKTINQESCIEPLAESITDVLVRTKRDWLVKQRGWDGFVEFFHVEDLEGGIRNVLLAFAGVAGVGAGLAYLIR
# [21] = target: Bcl-2-like protein 1 (Homo sapiens, UniProt Q07817); experiment: BCL-XL inhibitors, dose response, selectivity assay for MCL1 inhibitor project, biochemical, fluorescence polarization, 1536-well (AID 2218)
# Bcl-2-like protein 1, sequence (Q07817 whole entry): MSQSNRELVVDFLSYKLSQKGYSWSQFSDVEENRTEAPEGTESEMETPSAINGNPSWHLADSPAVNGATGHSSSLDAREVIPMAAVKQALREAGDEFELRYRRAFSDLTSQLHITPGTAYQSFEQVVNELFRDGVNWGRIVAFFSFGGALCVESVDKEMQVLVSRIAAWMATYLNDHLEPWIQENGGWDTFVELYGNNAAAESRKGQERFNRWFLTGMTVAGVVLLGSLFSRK
# [22] = target: T7, Microphthalmia-associated transcription factor (Homo sapiens, UniProt O75030); experiment: TRPM1 promoter luciferase signal decrease, dose response, MITF inhibitor project, cell-based, SK-MEL-5, cherry-picked, set 3 (AID 493073); assay type: functional
# T7 sequence (O75030 whole entry): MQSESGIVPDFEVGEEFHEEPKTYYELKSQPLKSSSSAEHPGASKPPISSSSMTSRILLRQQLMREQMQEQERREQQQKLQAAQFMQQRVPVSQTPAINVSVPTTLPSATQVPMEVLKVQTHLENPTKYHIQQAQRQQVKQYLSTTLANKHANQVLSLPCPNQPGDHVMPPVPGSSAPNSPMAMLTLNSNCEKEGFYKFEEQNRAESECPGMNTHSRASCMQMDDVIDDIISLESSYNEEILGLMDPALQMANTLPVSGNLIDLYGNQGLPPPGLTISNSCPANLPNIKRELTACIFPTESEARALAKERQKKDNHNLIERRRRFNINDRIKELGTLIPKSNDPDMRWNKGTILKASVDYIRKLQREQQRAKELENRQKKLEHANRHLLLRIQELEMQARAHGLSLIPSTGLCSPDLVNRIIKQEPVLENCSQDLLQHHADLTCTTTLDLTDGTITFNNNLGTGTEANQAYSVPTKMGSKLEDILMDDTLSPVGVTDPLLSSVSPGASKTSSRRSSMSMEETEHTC
smiles,measurement,setting,value
O=[N+]([O-])c1cc(C(F)(F)F)cc([N+](=O)[O-])c1NCCNC(=S)Nc1ccc(Cl)c(Cl)c1,EC50,[1],7.06 µM (inconclusive)
same,EC50,[2],303 µM (active)
same,EC50,[3],11.2 µM (not active)
same,AC50,[4],4.92 µM (active)
same,EC50,[5],8.24 µM (active)
same,EC50,[6],6 µM (active)
same,IC50,[7],7.03 µM (active)
same,EC50,[8],8.69 µM (active)
CC1=C(C(=O)OC2CCCCCCC2)C(c2cccc(O)c2)NC(=O)N1 (centres undefined),EC50,[9],537 µM (active)
O=C(c1cnccn1)N1CCc2ccccc21,IC50,[10],< 0.023 µM (not active)
same,IC50,[11],23.7 µM (active)
O=C(Nc1ccc2ccccc2c1)C(c1ccccc1)C1CCCC1 (centres undefined),EC50,[12],> 30 µM (not active)
same,IC50,[13],1.85 µM (active)
same,IC50,[14],2.1 µM (active)
same,EC50,[15],2.42 µM (active)
Cc1onc(-c2ccc(Cl)cc2)c1-c1ccnn1S(=O)(=O)c1cccc(C(F)(F)F)c1,EC50,[16],4.26 µM (active)
same,EC50,[17],> 29.9 µM (not active)
Cc1nc2ccccn2c1C(=O)N/N=C/c1ccc([N+](=O)[O-])o1,EC50,[18],> 160 µM (inactive)
same,EC50,[12],10.9 µM (active)
same,IC50,[19],5.79 µM (active)
same,IC50,[20],13.2 µM (not active)
same,EC50,[15],0.139 µM (active)
same,IC50,[21],55.2 µM (not active)
same,AC50,[22],8.03 µM (active)
